In brackets after ≈: the same amount, converted by molar mass. Several values for one entry are separate records, joined by “and”; a condition that tells them apart may be missing. Equal values may be shown once. Read-outs that look alike come from different tables or passages of the source. Marks after values point to notes of the source that are not given here.
Experiments:
[1] = tested on: M. tuberculosis H37Rv strain; test: microbe, parasite or virus in culture; assay type: cell-based, Mycobacterium tuberculosis; conditions: M. tuberculosis H37Rv, resazurin-based assay
[2] = tested on: M. tuberculosis strain PT2 (MDR clinical isolate); assay type: cell-based, Mycobacterium tuberculosis
[3] = tested on: M. tuberculosis strain PT12 (MDR clinical isolate); assay type: cell-based, Mycobacterium tuberculosis
[4] = tested on: M. tuberculosis strain PT20 (MDR clinical isolate); assay type: cell-based, Mycobacterium tuberculosis
[5] = tested on: Staphylococcus aureus ATCC 25923; assay type: cell-based; conditions: ATCC 25923, tested at 20 μM, 24 h
[6] = tested on: Escherichia coli ATCC 25922; assay type: cell-based; conditions: ATCC 25922, tested at 20 μM, 24 h
[7] = tested on: Acinetobacter baumannii multidrug-resistant clinical isolate; assay type: cell-based; conditions: tested at 20 μM, 24 h
[8] = tested on: Klebsiella pneumoniae multidrug-resistant clinical isolate; assay type: cell-based; conditions: tested at 20 μM, 24 h
[9] = 24 h, 10 μM
Protocol: The assessment of chemical stability at different pH levels provides insights into the quantity or concentration of the test compound that remains unchanged and, consequently, available for absorption. […] Following this incubation period, the test compounds were quantified using HPLC-MS/MS, with alprenolol serving as the analytical control. This experiment was conducted by CEMSA (São Paulo, SP, Brazil).

[10] = tested on: M. tuberculosis H37Rv strain in murine macrophage RAW 264.7 cells; assay type: cell-based, Mycobacterium tuberculosis; conditions: for Reduction of Mtb load compared to the untreated group: 5 days
HepG2 cells [11] = conditions: read-out: CC50 HepG2; MTT method, 72 h
HepG2 cells [12] = conditions: read-out: CC50 HepG2; Neutral Red method, 72 h
Vero cells [13] = conditions: read-out: CC50 Vero; MTT method, 72 h
Vero cells [14] = conditions: read-out: CC50 Vero; Neutral Red method, 72 h
[15] = 10 μM, pH 7.4, 5 h, 25 °C
[16] = rat liver microsomes, 2 μM, NADPH, 37 °C
[17] = mice; for Plasma concentration: 300 mg/kg single dose gavage
[18] = Aqueous solubility (UHPLC-DAD); conditions: 25 °C, 4 h

Compound: CCc1ccc(NCCCOc2cc(C)nc3ccc(Br)cc23)cc1 [8t, N-(3-((6-bromo-2-methylquinolin-4-yl)oxy)propyl)-4-ethylaniline]
- MIC [1]: 0.05 µM (≈ 0.02 µg/mL)
- MIC PT2 [2]: <0.05 µM
- MIC PT12 [3]: <0.05 µM
- MIC PT20 [4]: <0.05 µM
- MIC S. aureus [5]: MIC S. aureus = > 20 μM
- MIC E. coli [6]: MIC E. coli = > 20 μM
- MIC A. baumannii [7]: MIC A. baumannii = > 20 μM
- MIC K. pneumoniae [8]: MIC K. pneumoniae = > 20 μM
- Chemical Stability pH 1.2 (percentage of remaining compound) ([9]; 0.1 M HCl, 37 °C): Chemical Stability ^b pH 1.2 ^c = 100%
- Chemical Stability pH 9.1 (percentage of remaining compound) ([9]; 0.1 M NH4HCO3, 37 °C): Chemical Stability ^b pH 9.1 ^e = 6.0%
- Chemical Stability pH 7.4 (percentage of remaining compound) ([9]; PBS, 37 °C): Chemical Stability ^b pH 7.4 ^d = 5.3%
- Kind of effect on intracellular growth of M. tuberculosis H37Rv [10]: bacteriostatic effect
- Log10 CFU/well (Mean ± SD) [10]: 3.90 ± 0.30 ^d Log10 CFU/well and 4.10 ± 0.02 ^d Log10 CFU/well
- Reduction of Mtb load compared to the untreated group ([10]; 1 μM): 1.27 log10 CFU
- Reduction of Mtb load compared to the untreated group ([10]; 5 μM): 1.07 log10 CFU
- CC50 (HepG2 cells [11]): > 20 µM
- CC50 (HepG2 cells [12]): > 20 µM
- CC50 (Vero cells [13]): > 20 µM
- CC50 (Vero cells [14]): 11.8 µM
- PAMPA permeability [15]: PAMPA = 0.2 × 10^−6 cm/s
- Clint (intrinsic clearance) [16]: Clint ^f = 58 mL/min/kg
- t1/2 (half-life) [16]: t1/2 ^g = 7.0 min
- Ke (elimination rate constant) ([17]; 300 mg/kg gavage): 0.16 h^–1
- Plasma concentrations for a span of up to 8 h ([17]; 300 mg/kg gavage): exceeding 7.49 μM
- Tmax ([17]; 300 mg/kg gavage): 1 h
- t1/2 (elimination half-life) ([17]; 300 mg/kg gavage): 4.3 ± 1.2 h
- Cmax ([17]; 300 mg/kg gavage, noncompartmental analysis): 32.1 ± 3.9 µM
- AUC0-t ([17]; 300 mg/kg gavage, time 0 to 8 h): 127.5 ± 5.7 µM·h
- Plasma concentration ([17]; 0.5 h): 11.10 ± 1.24 µM
- Plasma concentration ([17]; 0.75 h): 15.73 ± 1.61 µM
- Plasma concentration ([17]; 1 h): 32.15 ± 3.94 µM
- Plasma concentration ([17]; 4 h): 13.45 ± 2.01 µM
- Plasma concentration ([17]; 8 h, 300 mg/kg): 9.80 µM and 9.80 ± 2.13 µM
- Solubility pH 1.2 ([18]; 0.1 M HCl solution): >2,500 μM
- Solubility pH 9.1 ([18]; 0.1 M NH4HCO3 solution): 30.22 μM
- Solubility pH 7.4 ([18]; PBS): 35.3 μM
